This test concerns C. difficile spores. The experiment in a line: Germination efficacy testing of germinant solution with antimicrobial and preservative (neutraliser, heat shock or ice). It counts as cell-based. As to conditions: for effect on the germinant solution / germination: antimicrobial added to germinant solution; for initiation of germination / sporicidal activity: without amino acids and taurocholate. On the procedure:
The solution was heated and mixed thoroughly to dissolve all of the components before filtration through a pore size of 0.2 μm for sterilization. (This solution is double the working strength as it is diluted 1:2 during the experiment).
The pH was adjusted to 7 and was autoclaved to sterilize.
For the control, 100 μL of sterilized distilled water was mixed with 100 μL of C. difficile spore suspension. Spore suspensions were also incubated with solutions containing benzalkonium chloride and Tris buffer (without amino acids or taurocholate), benzyl alcohol with Tris buffer (without amino acids and taurocholate) and a solution containing the five amino acids and taurocholate (with no antimicrobials). […] (miniMACS Anaerobic Workstation (Don Whitley Scientific Ltd)).

As to `O=C(O)CN(CCN(CC(=O)O)CC(=O)O)CC(=O)O` [EDTA], the “effect on the germinant solution / germination” value is listed as “inhibit the germinant solution”.
Consider `OCc1ccccc1` [benzyl alcohol], for which the “effect on the germinant solution / germination” value is reported as “do not affect germination”, the initiation of germination entry is “did not initiate germination” and the sporicidal activity result is “not sporicidal”.
Take `N=C(NCCCCCCNC(=N)NC(=N)Nc1ccc(Cl)cc1)NC(=N)Nc1ccc(Cl)cc1.O=C(O)[C@H](O)[C@@H](O)[C@H](O)[C@H](O)CO.O=C(O)[C@H](O)[C@@H](O)[C@H](O)[C@H](O)CO` [cholorohexidine]: the “effect on the germinant solution / germination” value was “inhibit the germinant solution”.
On to benzalkonium chloride, for which the “effect on the germinant solution / germination” value is “do not affect germination”, the initiation of germination entry is on record as “did not initiate germination” and the sporicidal activity result is listed as “not sporicidal”.
